pIC50: −log10 of the molar value.
Target: T1, human PAD4 (Homo sapiens, UniProt Q9UM07)
T1 construct: human PAD4 (NM_012387), A2P663, was PCR amplified; His-SUMO (N, cleaved yes); made in house; host or cells: E. coli BL21(DE3)
Experiment: In vitro PAD4 BAEE biochemical assay
Details: human PAD4, BAEE substrate; 5 nM PAD4, 2 mM calcium chloride, 3 mM BAEE; geometric mean of multiple experiments
In short: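 Ammonia release from BAEE deimination monitored by o-phthalaldehyde amine coupling (1 h, 25 °C) after EDTA stop. Final conditions: 5 nM tag-free recombinant human PAD4 (E. coli), 2 mM CaCl2, 3 mM BAEE, pH 7.6 MOPS with DTT; 30 min compound preincubation, then 2 h reaction at 25 °C.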

T1 sequence (Q9UM07 2-663): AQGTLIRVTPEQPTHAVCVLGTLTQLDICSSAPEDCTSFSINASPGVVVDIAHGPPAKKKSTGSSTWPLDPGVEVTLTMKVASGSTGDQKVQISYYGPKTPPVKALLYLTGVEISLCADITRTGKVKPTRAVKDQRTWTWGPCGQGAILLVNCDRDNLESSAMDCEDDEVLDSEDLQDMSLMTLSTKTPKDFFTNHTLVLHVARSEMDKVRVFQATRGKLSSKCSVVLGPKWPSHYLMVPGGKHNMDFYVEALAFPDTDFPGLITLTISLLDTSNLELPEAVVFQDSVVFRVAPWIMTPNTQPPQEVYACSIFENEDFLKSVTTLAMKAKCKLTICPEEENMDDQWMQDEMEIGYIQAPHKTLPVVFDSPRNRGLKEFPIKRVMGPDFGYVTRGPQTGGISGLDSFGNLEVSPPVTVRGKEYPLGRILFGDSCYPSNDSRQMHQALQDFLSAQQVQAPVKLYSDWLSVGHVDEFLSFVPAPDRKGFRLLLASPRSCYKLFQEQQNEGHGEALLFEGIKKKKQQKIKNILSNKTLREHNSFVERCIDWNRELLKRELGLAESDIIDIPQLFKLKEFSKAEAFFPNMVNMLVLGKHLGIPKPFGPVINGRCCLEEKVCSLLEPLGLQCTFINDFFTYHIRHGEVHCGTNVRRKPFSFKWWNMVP

| Structure (SMILES) | pIC50 |
| --- | --- |
| COc1cc(C(=O)N2[C@H]3CC[C@@H]2[C@H](N)C3)cc2nc(-c3cc4ccc([C@@H](C)Nc5cccc(Cl)n5)nc4n3CC3CC3)c(C)n12 [Example 262, [(1~{R},2~{R},4~{S})-2-amino-7-azabicyclo [2.2.1]heptan-7-yl]-[2-[6-[(1~{R})-1-[(6-chloropyridin-2-yl)amino]ethyl]-1-(cyclopropylmethyl)pyrrolo[2,3-b]pyridin-2-yl]-5-methoxy-3-methylimidazo[1,2-a]pyridin-7-yl]methanone] | 6.06 |
| COc1cc(C(=O)N2CCC[C@@H](N)[C@H]2C)cc2nc(-c3cc4ccc(N(C5CC5)S(C)(=O)=O)nc4n3CC3CC3)c(C)n12 [Example 479, ~{N}-[2-[7-[(2~{R}, 3~{R})-3-amino-2-methylpiperidine-1-carbonyl]-5-methoxy-3-methylimidazo[1,2-a]pyridin-2-yl]-1-(cyclopropylmethyl)pyrrolo [2,3-b]pyridin-6-yl]-~{N}-cyclopropylmethane-sulfonamide] | 6.74 |
| CCc1ccc2cc(-c3nc4cc(C(=O)N5CC6(N)CCC5CC6)cc(OC)n4c3C)n(CC3CC3)c2n1 [Example 593, (4-amino-2-azabicyclo[2.2.2]octan-2-yl)-[2-[1-(cyclopropylmethyl)-6-ethylpyrrolo[2,3-b]pyridin-2-yl]-5-methoxy-3-methylimidazo[1,2-a]pyridin-7-yl]methanone] | 5.72 |
| COc1cc(C(=O)N2[C@H]3CC[C@@H]2[C@H](N)C3)cc2nc(-c3cc4ccc([C@@H](C)NC(=O)c5ccccc5)nc4n3CC34CC(C3)C4)c(C)n12 [Example 489, ~{N}-[(1~{R})-1-[2-[7-[(1~{R},2~{R},4~{S})-2-amino-7-azabicyclo[2.2.1]heptane-7-carbonyl]-5-methoxy-3-methylimidazo[1,2-a]pyridin-2-yl]-1-(1-bicyclo [1.1.1]pentanylmethyl)pyrrolo[2,3-b]pyridin-6-yl]ethyl]benzamide] | 6.75 |
| COc1cc(C(=O)N2C[C@@H]3NCCO[C@@H]3C2)cc2nc(-c3cc4ccc(N(C(F)F)S(C)(=O)=O)nc4n3CC3CC3)c(C)n12 [Example 320, ~{N}-[2-[7-[(4~{a}~{S},7~{a}~{R})-3,4,4~{a},5,7,7~{a}-hexahydro-2~{H}-pyrrolo[3,4-b][1,4]oxazine-6-carbonyl]-5-methoxy-3-methylimidazo [1,2-a]pyridin-2-yl]-1-(cyclopropylmethyl)pyrrolo [2,3-b]pyridin-6-yl]-~{N}-(difluoromethyl) methanesulfonamide] | 4.72 |
| COc1cc(C(=O)N2[C@H]3CC[C@@H]2[C@H](N)C3)cc2nc(-c3cc4ccc([C@@H](C)NC(=O)[C@H](C)OC)nc4n3CC3CC3)c(C)n12 [Example 34, (2~{S})-~{N}-[(1~{R})-1-[2-[7-[(1~{R},2~{R}, 4~{S})-2-amino-7-azabicyclo[2.2.1]heptane-7-carbonyl]-5-methoxy-3-methylimidazo [1,2-a]pyridin-2-yl]-1-(cyclopropylmethyl)pyrrolo[2,3-b]pyridin-6-yl]ethyl]-2-methoxypropanamide] | 7.24 |
| CS(=O)(=O)N(c1ccc2cc(-c3nc4cc(C(=O)N5CCC[C@@H](N)C5)c(F)cn4c3C3CC3)n(CC3CC3)c2n1)C(F)F [Example 392, ~{N}-[2-[7-[(3~{R})-3-aminopiperidine-1-carbonyl]-3-cyclopropyl-6-fluoroimidazo [1,2-a]pyridin-2-yl]-1-(cyclopropylmethyl)pyrrolo [2,3-b]pyridin-6-yl]-~{N}-(difluoromethyl) methanesulfonamide] | 6.83 |
| C=CCC(=O)N[C@H](C)c1ccc2cc(-c3nc4cc(C(=O)N5[C@H]6CC[C@@H]5[C@H](N)C6)cc(OC)n4c3C)n(CC3CC3)c2n1 [Example 64, ~{N}-[(1~{R})-1-[2-[7-[(1~{R},2~{R},4~{S})-2-amino-7-azabicyclo[2.2.1]heptane-7-carbonyl]-5-methoxy-3-methylimidazo [1,2-a]pyridin-2-yl]-1-(cyclopropylmethyl)pyrrolo[2,3-b]pyridin-6-yl]ethyl]but-3-enamide] | 7.41 |
| COc1cc(C(=O)N2[C@H]3CC[C@@H]2[C@H](N)C3)cc2nc(-c3cc4ccc([C@@H](C)NC(=O)C5(C#N)CC5)nc4n3CC3CC3)c(C)n12 [Example 165, ~{N}-[(1~{R})-1-[2-[7-[(1~{R},2~{R},4~{S})-2-amino-7-azabicyclo[2.2.1]heptane-7-carbonyl]-5-methoxy-3-methylimidazo [1,2-a]pyridin-2-yl]-1-(cyclopropylmethyl)pyrrolo [2,3-b]pyridin-6-yl]ethyl]-1-cyanocyclopropane-1-carboxamide] | 7.22 |
| COc1cc(C(=O)N2[C@H]3CC[C@@H]2[C@H](N)C3)cc2nc(-c3cc4ccc([C@@H](C)NC(=O)C5CCC5(F)F)nc4n3CC3CC3)c(C)n12 (stereo partly shown) [Example 61, ~{N}-[(1~{R})-1-[2-[7-[(1~{R},2~{R},4~{S})-2-amino-7-azabicyclo [2.2.1]heptane-7-carbonyl]-5-methoxy-3-methylimidazo [1,2-a]pyridin-2-yl]-1-(cyclopropylmethyl)pyrrolo[2,3-b]pyridin-6-yl]ethyl]-2,2-difluorocyclobutane-1-carboxamide] | 7.42 |
| COc1cc(C(=O)N2[C@H]3CC[C@@H]2[C@H](N)C3)cc2nc(-c3cc4ccc([C@@H](C)NC(=O)N5CC(OC(F)(F)F)C5)nc4n3CC3CC3)c(C)n12 [Example 202, ~{N}-[(1~{R})-1-[2-[7-[(1~{R},2~{R},4~{S})-2-amino-7-azabicyclo[2.2.1]heptane-7-carbonyl]-5-methoxy-3-methylimidazo [1,2-a]pyridin-2-yl]-1-(cyclopropylmethyl)pyrrolo [2,3-b]pyridin-6-yl]ethyl]-3-(trifluoromethoxy)azetidine-1-carboxamide] | 7.28 |
| COc1cc(C(=O)N2[C@H]3CC[C@@H]2[C@H](N)C3)cc2nc(-c3cc4ccc(C(C)CC(=O)N5CCCC5)nc4n3CC3CC3)c(C)n12 (stereo partly shown) [Example 528, 3-[2-[7-[(1~{R},2~{R}, 4~{S})-2-amino-7-azabicyclo[2.2.1]heptane-7-carbonyl]-5-methoxy-3-methylimidazo[1,2-a]pyridin-2-yl]-1-(cyclopropylmethyl)pyrrolo [2,3-b]pyridin-6-yl]-1-pyrrolidin-1-ylbutan-1-one] | 7.19 |
| COc1cc(C(=O)N2CCC[C@@H](N)C2)cc2nc(-c3cc4ccc(N(C(F)F)S(=O)(=O)C5COC5)nc4n3CC3CC3)c(C)n12 [Example 478, ~{N}-[2-[7-[(3~{R})-3-aminopiperidine-1-carbonyl]-5-methoxy-3-methylimidazo[1,2-a]pyridin-2-yl]-1-(cyclopropylmethyl)pyrrolo [2,3-b]pyridin-6-yl]-~{N}-(difluoromethyl)oxetane-3-sulfonamide] | 6.63 |
| COc1cc(C(=O)N[C@@H]2CC[C@@H]3CC[C@H]2N3)cc2nc(-c3cc4ccc(N(C(F)F)S(C)(=O)=O)nc4n3CC3CC3)c(C)n12 [Example 299, ~{N}-[(1~{R},2~{R}, 5~{S})-8-azabicyclo [3.2.1]octan-2-yl]-2-[1-(cyclopropylmethyl)-6-[difluoromethyl (methylsulfonyl)amino]pyrrolo[2,3-b]pyridin-2-yl]-5-methoxy-3-methylimidazo[1,2-a]pyridine-7-carboxamide] | 5.09 |
| COc1cc(C(=O)N2[C@H]3CC[C@@H]2[C@H](N)C3)cc2nc(-c3cc4ccc(N(C)S(C)(=O)=O)nc4n3CC3CC3C)c(C)n12 (stereo partly shown) [Example 490, ~{N}-[2-[7-[(1~{R},2~{R}, 4~{S})-2-amino-7-azabicyclo[2.2.1]heptane-7-carbonyl]-5-methoxy-3-methylimidazo[1,2-a]pyridin-2-yl]-1-[(2-methylcyclopropyl)methyl]pyrrolo[2,3-b]pyridin-6-yl]-~{N}-methylmethanesulfonamide] | 7.12 |
| CCCO[C@@H]1CCN(C(=O)c2cc(OC)n3c(C)c(-c4cc5ccc([C@@H](C)NC(=O)c6ccccc6)nc5n4CC4CC4)nc3c2)C[C@@H]1N [Example 111, ~{N}-[(1~{R})-1-[2-[7-[(3~{S},4~{R})-3-amino-4-propoxypiperidine-1-carbonyl]-5-methoxy-3-methylimidazo[1,2-a]pyridin-2-yl]-1-(cyclopropylmethyl)pyrrolo [2,3-b]pyridin-6-yl]ethyl] benzamide] | 6.52 |
| COc1cc(C(=O)N2[C@H]3CC[C@@H]2[C@H](N)C3)cc2nc(-c3cc4ccc([C@@H](C)NC(=O)NC(C)(C)C(F)(F)F)nc4n3CC3CC3)c(C)n12 [Example 213, 1-[(1~{R})-1-[2-[7-[(1~{R},2~{R},4~{S})-2-amino-7-azabicyclo[2.2.1]heptane-7-carbonyl]-5-methoxy-3-methylimidazo [1,2-a]pyridin-2-yl]-1-(cyclopropylmethyl)pyrrolo [2,3-b]pyridin-6-yl]ethyl]-3-(1,1,1-trifluoro-2-methylpropan-2-yl)urea] | 7.33 |
| C[C@H]1CC[C@@H](N)CN1C(=O)c1ccn2c(C(F)F)c(-c3cc4ccc(N(C(F)F)S(C)(=O)=O)nc4n3CC3CC3)nc2c1 [Example 409, ~{N}-[2-[7-[(2~{S},5~{R})-5-amino-2-methylpiperidine-1-carbonyl]-3-(difluoromethyl)imidazo [1,2-a]pyridin-2-yl]-1-(cyclopropylmethyl)pyrrolo [2,3-b]pyridin-6-yl]-~{N}-(difluoromethyl) methanesulfonamide] | 5.93 |
| COC(=O)C12CC(C(=O)N[C@H](C)c3ccc4cc(-c5nc6cc(C(=O)N7[C@H]8CC[C@@H]7[C@H](N)C8)cc(OC)n6c5C)n(CC5CC5)c4n3)(C1)C2 [Example 159, methyl 3-[[(1~{R})-1-[2-[7-[(1~{R},2~{R},4~{S})-2-amino-7-azabicyclo[2.2.1]heptane-7-carbonyl]-5-methoxy-3-methylimidazo [1,2-a]pyridin-2-yl]-1-(cyclopropylmethyl)pyrrolo [2,3-b]pyridin-6-yl]ethyl]carbamoyl]bicyclo[1.1.1] pentane-1-carboxylate] | 7.23 |

— patent publication US12240862B2, “Inhibitors of peptidylarginine deiminases” (Gilead Sciences, Inc., priority 2020, dated 2025)
